{"source": "patent US11643439B2", "about": "“Multi-target compound with anticoagulation and antiplatelet activity, preparation method therefor, and use thereof” (SHAANXI MICOT TECHNOLOGY LIMITED COMPANY, priority 2015, dated 2023)", "system": "ADP-induced human platelet aggregation", "assay": "ADP-induced human platelet aggregation in vitro", "format": "cell-based", "conditions": "human PRP, 3 × 10−6 mol/L", "note": "Bridge positions count the residues as written; N and C are the ends. Square brackets hold non-standard residues; d marks the D form. Peptide text beside a SMILES is read from it. hArg = N=C(N)NCCCC[C@H](N)C(=O)O; Mpa = O=C(O)CCS", "method": "The drawn blood was centrifuged at 810 rpm for 8 minutes to obtain platelet rich plasma (PRP), which was taken out, then the blood sample was further centrifuged at 3510 rpm for 8 minutes to obtain platelet poor plasma (PPP).\nDetermination of platelet aggregation: A platelet aggregation instrument was started up and preheated for 30 minutes, and then calibrated with PPP. Into the test cups 270 μl of PRP was added, and then 10 μl of polypeptide 1, polypeptide 2, polypeptide 3 or polypeptide 4 (1.0×10^−7 mol/L) and/or 20 μl of physiological saline were added respectively, till a total volume of 300 μl. After incubation for 5 min, 5 μl of inducer ADP and 5 μl of epinephrine were added to start the test. After 5 minutes, the test was completed, and the maximum aggregation rate within the 5 minutes was recorded, and the data and maps were printed.", "data": [{"smiles": "N=C(N)NCCCC[C@@H]1NC(=O)CCSSC[C@@H](C(N)=O)NC(=O)[C@@H]2CCCN2C(=O)[C@H](Cc2c[nH]c3ccccc23)NC(=O)[C@H](CC(=O)O)NC(=O)CNC1=O", "note": "[Integrilin] ([Mpa][hArg]GDWPC-NH2; disulfide 1-7)", "values": [{"measurement": "inhibitory rate of platelet aggregation", "result": 100, "unit": "%"}]}]}
